For 4 compounds, Activity, inhibition and inhibition in vivo results are on record in ChEMBL document CHEMBL3826917, “Anti-inflammatory properties of pterocarpanquinone LQB-118 in mice” (Bioorg Med Chem, 2016).

The subject of data set [1] is Mus musculus. The data set is described as follows: Antiinflammatory activity in LPS-induced C57BL/6 mouse model of lung inflammation assessed as reduction in TNF-alpha release in bronchoalveolar lavage fluid at 10 mg/kg, ip administered 1 hr prior to LPS-challenge measured after 3 hrs by ELISA. In kind it is functional, organism-based. On the technique in general: ELISA stands for enzyme-linked immunosorbent assay.

In data set [2] the test system is Mus musculus. Briefly: Antiinflammatory activity in LPS-induced C57BL/6 mouse model of lung inflammation assessed as reduction in NF-kappaB activation at 10 mg/kg, ip administered 1 hr prior to LPS-challenge measured after 3 hrs by electrophoretic mobility shift assay. It is filed as functional, organism-based. On the technique in general: Mobility shift assays separate free from complexed probe on a gel.

Data set [3] relates to Mus musculus. The data set is described as follows: Antiinflammatory activity in LPS-induced C57BL/6 mouse model of lung inflammation assessed as reduction in keratinocyte-derived chemokine release in bronchoalveolar lavage fluid at 10 mg/kg, ip administered 1 hr prior to LPS-challenge measured after 3 hrs by ELISA. It is filed as functional, organism-based.
In the next data set the test system is PBMC. The data set is described as follows: Inhibition of LPS-induced TNF-alpha production in human PBMC at 1 to 100 uM administered prior to LPS-challenge measured after 2 hrs by ELISA. It is filed as functional, cell-based.
The subject of data set [4] is Mus musculus. The data set is described as follows: Toxicity in LPS-induced C57BL/6 mouse model of lung inflammation assessed as change in spleen weight at 1 to 100 mg/kg, ip administered 1 hr prior to LPS-challenge measured after 3 hrs relative to control. In kind it is organism-based. The note with it: in vivo.
The subject of data set [5] is Mus musculus. The data set is described as follows: Antiinflammatory activity in LPS-induced C57BL/6 mouse model of lung inflammation assessed as decrease in neutrophil infiltration in bronchoalveolar lavage fluid at 100 mg/kg, ip administered 1 hr prior to LPS-challenge measured after 3 hrs by Diff-Quik staining-based coulter particle counter method relative to vehicle-treated control. In kind it is functional. Conditions: C57BL/6, ip.

The subject of data set [6] is Mus musculus. Briefly: Toxicity in LPS-induced C57BL/6 mouse model of lung inflammation assessed as change in liver weight at 1 to 100 mg/kg, ip administered 1 hr prior to LPS-challenge measured after 3 hrs relative to control. In kind it is organism-based. Conditions: in vivo.
The test system of data set [7] is Mus musculus. Briefly: Antiinflammatory activity in LPS-induced C57BL/6 mouse model of lung inflammation assessed as decrease in neutrophil infiltration in bronchoalveolar lavage fluid at 1 to 10 mg/kg, ip administered 1 hr prior to LPS-challenge measured after 3 hrs by Diff-Quik staining-based coulter particle counter method. In kind it is functional, organism-based.

The subject of data set [8] is Mus musculus. Briefly: Toxicity in LPS-induced C57BL/6 mouse model of lung inflammation assessed as change in spleen weight at 10 mg/kg, ip administered 1 hr prior to LPS-challenge measured after 3 hrs relative to control. It is filed as organism-based. The note with it: in vivo.
Data set [9] concerns Mus musculus. The data set is described as follows: Antiinflammatory activity in LPS-induced C57BL/6 mouse model of lung inflammation assessed as decrease in neutrophil infiltration in bronchoalveolar lavage fluid at 10 mg/kg, ip administered 1 hr prior to LPS-challenge measured after 3 hrs by Diff-Quik staining-based coulter particle counter method. In kind it is functional, organism-based.

The test system of data set [10] is Mus musculus. Briefly: Toxicity in LPS-induced C57BL/6 mouse model of lung inflammation assessed as change in liver weight at 10 mg/kg, ip administered 1 hr prior to LPS-challenge measured after 3 hrs relative to control. In kind it is organism-based. Conditions: in vivo.

A word on the inhibition in vivo: it is the share of the control response that was lost under treatment.

Calls of active or inactive are those of the source. The rule behind the calls is not given here.

For `CC(=O)Oc1ccccc1C(=O)O`, the result in the data set with Mus musculus [1], with Mus musculus [2] and with Mus musculus [3] was Active.
Consider `CC(C)=CCC1=C(O)C(=O)c2ccccc2C1=O`, for which, in the data set on PBMC, the inhibition entry is “inactive”.
Consider `O=C1C2=C(C(=O)c3ccccc31)C1Oc3ccccc3C1CO2` (racemic), for which the Activity result with Mus musculus [4] and in the data set with Mus musculus [6] was “Non-toxic” in each case. Besides, the inhibition in vivo at 100 mg/kg with Mus musculus [5] came out at 90%. For the same compound, the outcome in the data set on Mus musculus [1], in the data set on Mus musculus [7] and in the data set with Mus musculus [2] was Active. The outcome with Mus musculus [3] was inactive.
Turning to `C[C@@H]1C[C@H]2[C@@H]3CCC4=CC(=O)C=C[C@]4(C)[C@@]3(F)[C@@H](O)C[C@]2(C)[C@@]1(O)C(=O)CO` [DEXAMETHASONE], the Activity result in the data set with Mus musculus [8] and in the data set with Mus musculus [10] was “Toxic” in each case. Moreover, the outcome with Mus musculus [1], in the data set on Mus musculus [9] and in the data set with Mus musculus [3] was Active.
